For seven molecules, IC50 results are on record in patent publication US9895330B2, “IDO inhibitors” (BRISTOL-MYERS SQUIBB COMPANY, priority 2013, dated 2018).

One test deals with T1, Human IDO1 (Homo sapiens, UniProt P14902).
T1 construct: expressed in transfected cells; host or cells: HEK293
As to the kind of experiment: IDO Kynurenine Assay with Human IDO1/HEK293 Cells. The note with it: 20 hours incubation, kynurenine absorbance at 490 nm, read-out: HEK human IDO-1 (IC50). It is filed as cell-based. How it is done: IDO Kynurenine Assay with Human IDO1/HEK293 Cells
Human IDO1/HEK293 cells were seeded at 10,000 cells per 50 uL per well with RPMI/phenol red free media contains 10% FBS in a 384-well black wall clear bottom tissue culture plate (Matrix Technologies LLC) 125 nL of certain concentration of compound was then added to each well using ECHO liquid handling systems. The cells were incubated for 20 hours in 37° C. incubator with 5% CO2.
The compound treatments were stopped by adding Trichloroacetic Acid (Sigma-Aldrich) to a final concentration at 0.2%. The cell plate was further incubated at 50° C. for 30 minute. The equal volume supernatant (20 uL) and 0.2% (w/v) Ehrlich reagent (4-dimethylaminobenzaldehyde, Sigma-Aldrich) in glacial acetic acid were mixed in a new clear bottom 384-well plate. This plate was then incubated at room temperature for 30 minute. The absorbance at 490 nm was measured on Envision plate reader.
Compound IC50 values were calculated using the counts of 500 nM of a reference standard treatment as one hundred percent inhibition, and counts of no compound but DMSO treatment as zero percent inhibition.

Test [1] deals with T2, IDO (IFNγ-treated Hela cells) (Homo sapiens, UniProt P14902).
T2 construct: endogenous in cells; host or cells: Hela cells treated with IFNγ (10 ng/ml)
Put plainly: IDO Kynurenine Assay with Hela Cells. It is filed as cell-based. The conditions noted are these: IFNγ 10 ng/ml, 20 hours incubation, kynurenine absorbance at 490 nm, read-out: Hela Cells LLE_IDO_ABS_DR (IC50). How it is done: IDO Kynurenine Assay with Hela Cells
Hela cells were seeded at 30,000 cells per well in 40 ul RPMI/phenol red free media contains 10% FBS in a 384-well black wall clear bottom tissue culture plate (Matrix Technologies LLC). 270 nl of certain concentration of compound was then added to each well using ECHO liquid handling systems. 40 ul of IFNγ (R&D, 285-IF-100) at final concentration of 10 ng/ml was then added to column 2-24 with media to column 1 as control. The cells were incubated for 20 hours in 37° C. incubator with 5% CO2.
The compound treatments were stopped by adding trichloroacetic acid (Sigma-Aldrich) to a final concentration at 0.2%. The cell plate was further incubated at 50° C. for 30 minute. The equal volume supernatant (20 uL) and 0.2% (w/v) Ehrlich reagent (4-dimethylaminobenzaldehyde, Sigma-Aldrich) in glacial acetic acid were mixed in a new clear bottom 384-well plate. This plate was then incubated at room temperature for 30 minute. The absorbance at 490 nm was measured on Envision plate reader.
Compound IC50 values were calculated using the counts of no IFNγ control as one hundred percent inhibition, and counts of no compound but DMSO treatment as zero percent inhibition.

Molecules are shown by their SMILES.

T2 sequence (P14902 whole entry): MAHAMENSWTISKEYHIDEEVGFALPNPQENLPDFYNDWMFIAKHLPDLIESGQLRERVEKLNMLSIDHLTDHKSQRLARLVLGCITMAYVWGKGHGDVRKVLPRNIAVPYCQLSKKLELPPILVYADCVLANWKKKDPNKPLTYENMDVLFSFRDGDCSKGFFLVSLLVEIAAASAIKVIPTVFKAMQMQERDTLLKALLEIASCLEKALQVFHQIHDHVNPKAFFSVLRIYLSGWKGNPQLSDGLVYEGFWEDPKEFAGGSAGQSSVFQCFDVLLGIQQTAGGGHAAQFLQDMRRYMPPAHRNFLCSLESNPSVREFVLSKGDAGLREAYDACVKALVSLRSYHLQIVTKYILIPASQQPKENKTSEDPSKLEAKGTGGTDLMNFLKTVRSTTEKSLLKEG
T1 sequence (P14902 whole entry): as above

`Cc1ccc(CC(=O)Nc2cc(-c3ccccc3-c3nnn[nH]3)ccc2N2CC3CC2CN3Cc2ccccc2)cc1` (centres unmarked) [Example 80]: the concentration for half-maximal inhibition (IC50) – broadly, the concentration that gives 50% inhibition – came to 5.13 nM on Human IDO1 and 8.44 nM in test [1]. Taken in the same sequence, the figures for `Cc1ccc(CC(=O)Nc2cc(-c3ccccc3-c3nnn[nH]3)ccc2N(Cc2ccccc2)CC(C)C)cc1` [Example 74] were 10 nM and 3.06 nM. Consider `CC(C)CN(CC(C)C)c1ccc(-c2ccccc2-c2nnn[nH]2)cc1NC(=O)Cc1ccncc1` [Example 57], for which the IC50 at Human IDO1 was found to be 360 nM. For `O=C(Cc1ccccc1C(F)(F)F)Nc1cc(-c2ccccc2-c2nnn[nH]2)ccc1N1CC2CC1CN2Cc1ccccc1` (centres unmarked) [Example 81], the IC50 came out at 110 nM on Human IDO1 and 100 nM in test [1].

For `CC(C)CN(CC(C)C)c1ccc(-c2ccccc2-c2nnn[nH]2)cc1NC(=O)Cc1ccc(F)cc1` [Example 12, N-(4-(diisobutylamino)-2′-(1H-tetrazol-5-yl)biphenyl-3-yl)-2-(4-fluorophenyl)acetamide], the values for the IC50 (at Human IDO1; in test [1]) were 2.99 nM and 10 nM, respectively.

For the molecule `N#Cc1ccc(CC(=O)Nc2cc(-c3ccccc3-c3nnn[nH]3)ccc2N(CCCC(F)(F)F)C2CCCCC2)cc1` [Example 71], the IC50 at Human IDO1 amounted to 270 nM. On the same count and under the same terms, the result for `CCC(CC)N(CC(C)C)c1ccc(-c2cc(F)ccc2C(=O)O)cc1NC(=O)Cc1ccc(C)cc1` [Example 61] reads 20 nM.
